What was measured:
Assay type in all cases: in vivo, human
IBS patients = assay: Treatment of IBS with live Bifidobacterium tablets (Example 8)
patients with diarrhea [1] = assay: Treatment of diarrhea associated with cold or raw food, or with common cold (Example 9); details: 14 to 21 days
patients with diarrhea [2] = assay: Treatment of diarrhea associated with alcohol intake (Example 10); details: 14 to 21 days
[3] = 57 IBS patients, 14 to 21 days, cured plus effective
[4] = diarrhea after cold/raw food or common cold
[5] = diarrhea after drinking alcohol

Substance: Bifidobacterium
- Cured % (IBS patients; 57 IBS patients, 14 to 21 days): 61%
- Cured Case No. (IBS patients; 57 IBS patients, 14 to 21 days): 35
- Effective % (IBS patients; 57 IBS patients, 14 to 21 days): 28%
- Effective Case No. (IBS patients; 57 IBS patients, 14 to 21 days): 16
- Improved % (IBS patients; 57 IBS patients, 14 to 21 days): 11%
- Improved Case No. (IBS patients; 57 IBS patients, 14 to 21 days): 6
- Ineffective % (IBS patients; 57 IBS patients, 14 to 21 days): 0%
- Ineffective Case No. (IBS patients; 57 IBS patients, 14 to 21 days): 0
- Effective Cases % (overall effective rate) (IBS patients; [3]): 89%
- Effective Cases Case No. (IBS patients; [3]): 51
- other IBS symptoms, such as abdominal pain and discomfort (IBS patients; IBS patients): alleviated
- symptoms of diarrhea or constipation (IBS patients; most of the IBS patients): ameliorated
- effectiveness in treating diarrhea associated with eating cold or raw foods, or with common cold (patients with diarrhea [1]): highly effective
- Cured (cases) (patients with diarrhea [1]; [4]): 23
- Effective (cases) (patients with diarrhea [1]; [4]): 14
- Improved (cases) (patients with diarrhea [1]; [4]): 5
- Ineffective (cases) (patients with diarrhea [1]; [4]): 0
- Efficacy (patients with diarrhea [1]; diarrhea after cold/raw food or common cold, cured plus effective): 88.10%
- effectiveness in treating diarrhea associated with alcohol intake (patients with diarrhea [2]): highly effective
- Cured (cases) (patients with diarrhea [2]; [5]): 21
- Effective (cases) (patients with diarrhea [2]; [5]): 13
- Improved (cases) (patients with diarrhea [2]; [5]): 4
- Ineffective (cases) (patients with diarrhea [2]; [5]): 0
- Efficacy (patients with diarrhea [2]; diarrhea after drinking alcohol, cured plus effective): 89.5%
